Converted amounts (≈) assume the structure as drawn.
Assays:
Format in all cases: cell-based
Penicillium expansum = assay: growth inhibition of fungal and yeast cells
Excerpt: (§1) This selective inhibition of the growth of eukaryotes versus prokaryotes is a useful characteristic of the compound.

Aspergillus clavatus = assay: growth inhibition of fungal and yeast cells
Excerpt: as §1

Rhodotorula mucilaginosa = assay: growth inhibition of fungal and yeast cells
Excerpt: as §1

Debaryomyces hansenii = assay: growth inhibition of fungal and yeast cells
Excerpt: as §1

human lymphocytes = assay: toxicity to human lymphocytes (IC50); settings: Lymphocyte
[1] = test system: Selenastrum capricornumtum; assay: algal growth inhibition test; settings: 1 mM to 0.063 mM, 72 hrs exposure, optical density relative to control
Description: The algal (Selenastrum capricornumtum) growth inhibition test involves exposing the unicellular algae to the toxicant for 72 hrs, under defined conditions: at a temperature of 24° C. and in a test facility fitted with a cool white fluorescent light with a light intensity of ±4000 lux. The test facility is free of vapour, odours and dust which may be toxic to the algae.
Growth inhibition is measured as a reduction in growth rate relative to the control and is determined in terms of optical density. Definitive tests (testing serial dilutions) are carried out. The percentage growth inhibition in each test is usually reported as Effect or the 72 hr EC20 or EC50.

[2] = test system: Bordetella bronchiseptica; assay: growth inhibition of bacterial cells
Excerpt: as §1

[3] = test system: Staphylococcus intermedius; assay: growth inhibition of bacterial cells; settings: Staphylococcus intermedius (3 strains)
Excerpt: as §1

[4] = test system: Sphingobacterium spritivorum; assay: growth inhibition of bacterial cells
Excerpt: as §1

Pasteurella haemolytica = assay: growth inhibition of bacterial cells
Excerpt: as §1

Actinomyces pyogenes = assay: growth inhibition of bacterial cells
Excerpt: as §1

[5] = test system: MCF cells (breast cancer cells); assay: MTT cytotoxicity assay, MCF cells; settings: 200 μM, 48 h
Description: (§2) In addition, when HeLa and MCF cells (breast cancer cells) were exposed to 200 μM pavetamine for 48 h, 30% cell death occurred for HeLa cells and 25% for the MCF cells. The MTT (3-(4,5-dimethyl-2-thiazolyl)-2,5-diphenyl-2H-tetrazolium bromide) assay (Sigma, St Louis, USA) was used to measure the cytotoxicity of pavettamine in these cell lines.

HeLa cancer cells = assay: activity against HeLa cancer cells (toxicity, IC50)
HeLa cells = assay: MTT cytotoxicity assay, HeLa cells; settings: 200 μM, 48 h
Description: as §2

NC[C@@H](O)C[C@@H](O)CNC[C@H](O)C[C@H](O)CN [pavettamine, (2S,4R,8R,10S)-1,11-diamino-6-aza-undecane-2,4,8,10-tetraol]
inhibitory activity towards growth of fungal and yeast cells (Penicillium expansum): inhibitory activity
inhibitory activity towards growth of fungal and yeast cells (Aspergillus clavatus): inhibitory activity
inhibitory activity towards growth of fungal and yeast cells (Rhodotorula mucilaginosa): inhibitory activity
inhibitory activity towards growth of fungal and yeast cells (Debaryomyces hansenii): inhibitory activity
IC50 (human lymphocytes): 2 µg/mL (≈ 7.96 µM)
growth inhibition of algae [1]: ≥ 98%
inhibitory activity towards growth of bacterial cells [2]: no inhibitory activity
inhibitory activity towards growth of bacterial cells [3]: no inhibitory activity
inhibitory activity towards growth of bacterial cells [4]: no inhibitory activity
inhibitory activity towards growth of bacterial cells (Pasteurella haemolytica): no inhibitory activity
inhibitory activity towards growth of bacterial cells (Actinomyces pyogenes): no inhibitory activity
cell death, MCF cells [5]: 25%
times more toxic to HeLa cancer cells than to human lymphocytes (HeLa cancer cells; HeLa cancer cells versus human lymphocytes): 10 ×
IC50 (HeLa cancer cells; Homo sapiens, HeLa): 0.2 µg/mL (≈ 0.796 µM)
cell death, HeLa cells (HeLa cells): 30%

Source: patent US20110251289A1, “NEW COMPOUNDS FOR THE TREATMENT OF CANCER” (CSIR, priority 2008, published 2011)
